Tested on: P12-Ichikawa
Test: cell viability relative to DMSO control; higher = less cytotoxic
Conditions: 48 h
Procedure, shortened: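 NOMO1 or SEM cells were plated at 500 cells/well and P12-Ichikawa cells at 1000 cells/well in 1536-well plates (5 μl), after each leukemia line had been adapted for at least four passages in each medium. Pin dosing delivered library compounds in DMSO at 11 threefold concentrations, 47 μM to 0.79 nM. CellTiter-Glo One luminescence was read after 48 h at 37°C. Viability is reported as a per-plate percentage of DMSO wells, with cell-free wells as background.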

[1] = HPLM + 10% dialyzed FBS, 0.000781 µM
[2] = HPLM + 10% dialyzed FBS, 0.00234 µM
[3] = HPLM + 10% dialyzed FBS, 0.00702 µM
[4] = HPLM + 10% dialyzed FBS, 0.0211 µM
[5] = HPLM + 10% dialyzed FBS, 0.0632 µM
[6] = HPLM + 10% dialyzed FBS, 0.19 µM
[7] = HPLM + 10% dialyzed FBS, 0.569 µM
[8] = HPLM + 10% dialyzed FBS, 1.71 µM
[9] = HPLM + 10% dialyzed FBS, 5.12 µM
[10] = HPLM + 10% dialyzed FBS, 15.4 µM
[11] = HPLM + 10% dialyzed FBS, 46.1 µM
[12] = RPMI 5 mM glucose + 10% FBS, 0.000781 µM
[13] = RPMI 5 mM glucose + 10% FBS, 0.00234 µM
[14] = RPMI 5 mM glucose + 10% FBS, 0.00702 µM
[15] = RPMI 5 mM glucose + 10% FBS, 0.0211 µM
[16] = RPMI 5 mM glucose + 10% FBS, 0.0632 µM
[17] = RPMI 5 mM glucose + 10% FBS, 0.19 µM
[18] = RPMI 5 mM glucose + 10% FBS, 1.71 µM
[19] = RPMI 5 mM glucose + 10% FBS, 5.12 µM
[20] = RPMI 5 mM glucose + 10% FBS, 15.4 µM
[21] = RPMI 5 mM glucose + 10% FBS, 46.1 µM
[22] = RPMI 5 mM glucose + 10% dialyzed FBS, 0.000781 µM
[23] = RPMI 5 mM glucose + 10% dialyzed FBS, 0.00234 µM
[24] = RPMI 5 mM glucose + 10% dialyzed FBS, 0.00702 µM
[25] = RPMI 5 mM glucose + 10% dialyzed FBS, 0.0211 µM
[26] = RPMI 5 mM glucose + 10% dialyzed FBS, 0.0632 µM
[27] = RPMI 5 mM glucose + 10% dialyzed FBS, 0.19 µM
[28] = RPMI 5 mM glucose + 10% dialyzed FBS, 0.569 µM
[29] = RPMI 5 mM glucose + 10% dialyzed FBS, 1.71 µM
[30] = RPMI 5 mM glucose + 10% dialyzed FBS, 5.12 µM
[31] = RPMI 5 mM glucose + 10% dialyzed FBS, 15.4 µM
[32] = RPMI 5 mM glucose + 10% dialyzed FBS, 46.1 µM
[33] = RPMI 5 mM glucose + 10% FBS, 0.569 µM

Row | SMILES | cell viability [1] | cell viability [2] | cell viability [3] | cell viability [4] | cell viability [5] | cell viability [6] | cell viability [7] | cell viability [8] | cell viability [9] | cell viability [10] | cell viability [11] | cell viability [12] | cell viability [13] | cell viability [14] | cell viability [15] | cell viability [16] | cell viability [17] | cell viability [18] | cell viability [19] | cell viability [20] | cell viability [21] | cell viability [22] | cell viability [23] | cell viability [24] | cell viability [25] | cell viability [26] | cell viability [27] | cell viability [28] | cell viability [29] | cell viability [30] | cell viability [31] | cell viability [32] | cell viability [33]
1 | O=C(CS(=O)Cc1ccco1)NC/C=C\COc1cc(CN2CCCCC2)ccn1 (configuration not stated) | 90.8% | 98.6% | 100% | 98% | 101% | 102% | 107% | 104% | 107% | 112% | 100% | 87.7% | 88% | 93.3% | 99.8% | 104% | 98.7% | 96.4% | 109% | 94.4% | 109% | 78.9% | 87.4% | 87.2% | 97.4% | 101% | 94.4% | 95.9% | 92.3% | 93.2% | 105% | 99.3% | –
2 | ClC1=CC=C2N/C3=N/C(=O)CN3CC2=C1Cl | 120% | 122% | 126% | 130% | 115% | 122% | 118% | 115% | 114% | 112% | 82.2% | – | – | – | – | – | – | – | – | – | – | 125% | 119% | 130% | 117% | 124% | 127% | 118% | 118% | 107% | 105% | 68.7% | –
3 | C[C@@H]1O[C@@H](O[C@H]2C[C@@H](O)[C@]3(CO)[C@H]4[C@H](O)C[C@]5(C)[C@@H](C6=CC(=O)OC6)CC[C@]5(O)[C@@H]4CC[C@]3(O)C2)[C@H](O)[C@H](O)[C@H]1O | 98.5% | 96.7% | 97.5% | 85.2% | 32.9% | 11.5% | 10.7% | 12.3% | 12.7% | 12.9% | 9.88% | 92.2% | 105% | 102% | 94.7% | 80% | 33.6% | 8.91% | 6.97% | 6.93% | 5.78% | 98.8% | 101% | 98.7% | 88.7% | 56.4% | 17.6% | 9.86% | 8.22% | 6.53% | 5.46% | 4.89% | 9.32%
4 | O=C(O)CCCCC(CCSCc1ccccc1)SCc1ccccc1 (configuration not stated) | 108% | 115% | 114% | 109% | 120% | 116% | 122% | 113% | 118% | 62.1% | 9.29% | 112% | 117% | 138% | 119% | 128% | 132% | 135% | 121% | 119% | 58.4% | 106% | 116% | 116% | 111% | 122% | 124% | 121% | 122% | 116% | 101% | 52.9% | 130%
5 | O=C(CCc1ccc(O)cc1)c1c(O)cc(O)cc1O | 94.5% | 106% | 104% | 99.5% | 103% | 111% | 110% | 116% | 112% | 103% | 110% | 89.5% | 91% | 100% | 103% | 90.2% | 101% | 104% | 105% | 107% | 91.1% | 81.6% | 92% | 93% | 96.7% | 100% | 98.7% | 103% | 94.3% | 102% | 90.4% | 99.4% | 106%
6 | c1ccc2c(Cc3c[nH]c4ccccc34)c[nH]c2c1 | 94.9% | 101% | 93.7% | 95.8% | 97% | 95.4% | 95.1% | 91.1% | 89.7% | 87.4% | 29.9% | 100% | 93.3% | 95% | 92.2% | 82.2% | 90.4% | 91.2% | 88.7% | 89.3% | 32.8% | 86% | 94.3% | 92.2% | 84.8% | 89.6% | 92% | 96.8% | 94% | 86.3% | 85.2% | 38% | 86.7%
7 | OC[C@H]1O[C@H](C[C@@H]1O)N2\C=C(F)/C(=O)NC2=O | 123% | 109% | 110% | 92.4% | 78.1% | 47.9% | 33.3% | 28.5% | 20.6% | 22.7% | 11% | 115% | 104% | 101% | 106% | 92.2% | 55.2% | 38.1% | 25.6% | 33.6% | 30.1% | 124% | 109% | 116% | 109% | 76.9% | 45.7% | 34.3% | 30.3% | 21.8% | 27.6% | 19.4% | 51.6%
8 | CC[S+](=O)([O-])Nc1ccc2c(c1)/C(=C(/Nc1ccc(CN3CCCCC3)cc1)c1ccccc1)C(=O)N2 | 106% | 114% | 115% | 109% | 111% | 12.9% | 11.6% | 18.7% | 27.1% | 54.3% | 32.2% | 127% | 116% | 120% | 119% | 114% | 14.3% | 30.7% | 35.3% | 51.4% | 21.4% | 123% | 117% | 121% | 118% | 121% | 22.6% | 25.8% | 47.3% | 52% | 59.8% | 18.8% | 17.4%

Source: the supplement of paper PMC11451515
